Data published in patent US20200276181A1, “THIENOISOQUINOLINES AND THEIR DERIVATIVES FOR TARGETING TUBULIN, CH-TOG, AURORA A KINASE, TPX2, CDK5RAP2 AND/OR ASPM” (VALORBEC, SEC, priority 2017, published 2020).

Columns and labels:
[1] = system: MCF7, BT549, A549, HCT116, HeLa cells; assay: Viability in cancer vs non-cancer cell lines, summary of Table 3; type: cell-based, human
Description: To date, 30 variants with different structural modifications have been made. […] In particular, it is shown that C75 causes death in multiple cancer cells with IC50 values in the 100-400 nM range, including breast cancers (MCF7, BT549), lung cancer (A549), colorectal cancer (HCT116) in addition to HeLa cells (cervical cancer).

[2] = system: HeLa cells with lower levels of endogenous MCAK (MCAK RNAi); assay: Spindle phenotypes with MCAK RNAi; type: cell-based, human; settings: 300 nM C75 or 30 nM colchicine
From the text: FIG. 8B) is a bar graph showing the proportion of spindle phenotypes in HeLa cells treated as in 8A).
Since this is unique to C75, and ch-TOG RNAi was previously shown to be suppressed (partially) by MCAK RNAi, supporting C75's role in targeting ch-TOG or a component of the pathway.

HeLa cells [3] = assay: Viability IC50 of C75 in combination with subthreshold tubulin-targeting drug; type: cell-based, human
From the text: Bars show standard deviation. […] The bars indicate standard deviation. […] The bars indicate standard deviation. […] The scale bar for all cells is 10 μm.
(§1) Bars show standard deviation. […] The scale bar for all cells is 10 μm. In FIG. 4F), bar graphs show changes in the proportion of HCT 116 cells with the different spindle phenotypes as in FIG. 4D (n=2368; N=3). […] Bars indicate standard deviation.

HFF1 cells = assay: Percentage of mitotic cells, paclitaxel +/- C75; type: cell-based; settings: 200 nM C75 + paclitaxel
Description: FIG. 3A) is a line graph showing cytotoxicity of HeLa cells after treatment with varying concentrations of C75+/−a subthreshold dose of paclitaxel (Taxol™; 3 nM). The IC50 is shown by the dotted line. Bars show standard deviation. FIG. 3B) is a line graph showing the percentage of mitotic HeLa or HFF1 cells treated with a range of paclitaxel concentrations+/−C75 as indicated. The bars indicate standard deviation. FIG. 3C) is a series of bar graphs showing the proportion of HCT 116 cells with bipolar aligned (grey), bipolar misaligned (dark grey), multipolar/fragmented (light grey, top portion of each bar) or monopolar (black) spindles 7 hours after treatment with control (DMSO), varying concentrations of paclitaxel or C75, or both as indicated (n=691; N=3). The bars show standard deviation. The combination treatments were compared to paclitaxel and C75 on their own by calculating ratios varying from the predicted ratio, and found to synergize at 100 and 200 nM. FIG. 3D) is bar graph showing the average distance between centrosome fragments in HCT116 cells after treatments as shown. While centrosome fragments moved closer together with increased concentrations of paclitaxel, they moved further apart with increased concentrations of C75 (n=105; N=3). […]

HeLa cells [4] = assay: Percentage of mitotic cells, nocodazole +/- C75; type: cell-based, human; settings: 200 nM C75 + 33 or 66 nM nocodazole
HCT116 cells = assay: Viability IC50 of C75 in combination with subthreshold colchicine; type: cell-based; settings: + 3 nM colchicine
From the text: as §1

[5] = system: HeLa, A549 and HCT116 cancer cells compared to HFF-1 non-cancer cells; assay: Selective toxicity, high-throughput automated analysis; type: cell-based; settings: A549, HCT116 vs HFF-1
Description: FIG. 1A) is a line graph showing changes in the percentage of viable HFF-1, HeLa, A549 and HCT 116 cells after treatment with a range of C75 concentrations for 3 population doubling times (N=3). […] There were more rounded mitotic cells after C75 treatment in comparison to the control. FIG. 1C) is a line graph showing the percentage of HeLa and HFF1 cells in mitosis after treatment with various concentrations of C75 for 8 hours. The bars indicate standard deviation. FIG. 1D) is a series of images showing cells that were fixed and co-stained for tubulin (microtubules) and DAPI (DNA). Treatment of HeLa cells with 300 nM C75 caused the mitotic spindles to be disorganized, while they were not affected in HFF1 cells. […] The scale bar for the cells is 10 μm. […] FIG. 1F) is a cartoon schematic showing the key features of a metaphase cell.
The images in FIG. 1B) show fields of view of HeLa cells treated with (dimethyl sulfoxide) DMSO or 500 nM of C75. […] Higher concentrations of C75 caused spindle phenotypes in HFF1 cells, but they were quite different in comparison to HeLa cells (FIG. 1D).

[6] = biological target: Purified free alpha and beta tubulin dimers (Homo sapiens, UniProt P07437+Q71U36); assay: Microtubule polymerization in vitro; type: biochemical; settings: 35 minutes at 37° C., Mg2+ and GTP, 20% glycerol buffer
Description: FIG. 10 is a graph showing microtubule polymerization in vitro in the presence of 200 nM C75 or DMSO (control). Bars show SEM. Microtubules fail to polymerize in the presence of C75, but not in control samples, showing that tubulin could be a target of C75 in vitro.
Purified free alpha and beta tubulin dimers were added at a concentration of […] to a 20% glycerol buffer and allowed to polymerize in the presence of Mg^2+ and GTP for 35 minutes at 37° C. While DMSO had no effect on microtubule polymerization, 200 nM of C75 prevented polymerization. […] This supports that C75 binds tubulin at a different site compared to other microtubule-depolymerizing drugs.

COc1ccc(S(=O)(=O)N2Cc3ccccc3-c3sc(Br)cc32)cc1 [Compound C75]
efficacy (effect on viability) in cancer cells vs. non-cancer cells [1]: higher efficacy | IC50 ([1]; Homo sapiens, MCF7, BT549, A549, HCT116, HeLa, read-out: IC50 values in multiple cancer cells): 100 to 400 nM | suppression of fragmented spindle phenotype by MCAK RNAi [2]: partially suppressed | lowering of the IC50 of C75 by subthreshold colchicine (HeLa cells [3]; + 3 nM colchicine): ~2 fold | reduction of the IC50 of C75 by subthreshold paclitaxel (HeLa cells [3]; + 3 nM paclitaxel): ~2 fold | effect on non-cancerous cells treated with paclitaxel (HFF1 cells): protective effect | change in proportion of mitotic cells (HeLa cells [4]): large change | lowering of the IC50 of C75 by subthreshold colchicine (HCT116 cells): ~2 fold | toxicity in cancer cells compared to HFF-1 non-cancer cells [5]: selectively cause toxicity | concentration that prevented microtubule polymerization [6]: 200 nM
